According to ChEMBL document CHEMBL4373724, “An overview of recent progress in siderophore-antibiotic conjugates” (2019):
Values after ≈ are worked out from the molar mass of the structure shown.

What was measured:
Format in all cases: functional
[1] = tested on: Mycobacterium tuberculosis; assay: Antitubercular activity against extensively drug resistant Mycobacterium tuberculosis isolate 8
[2] = tested on: Mycobacterium tuberculosis; assay: Antitubercular activity against extensively drug resistant Mycobacterium tuberculosis isolate 10
[3] = tested on: Mycobacterium tuberculosis; assay: Antitubercular activity against extensively drug resistant Mycobacterium tuberculosis isolate 11
[4] = tested on: Mycobacterium tuberculosis; assay: Antitubercular activity against multi drug resistant Mycobacterium tuberculosis isolate 1
[5] = tested on: Mycobacterium tuberculosis; assay: Antitubercular activity against multi drug resistant Mycobacterium tuberculosis isolate 5
[6] = tested on: Mycobacterium tuberculosis; assay: Antitubercular activity against multi drug resistant Mycobacterium tuberculosis isolate 3
[7] = tested on: Mycobacterium tuberculosis; assay: Antitubercular activity against extensively drug resistant Mycobacterium tuberculosis isolate 9
[8] = tested on: Mycobacterium tuberculosis; assay: Antitubercular activity against multi drug resistant Mycobacterium tuberculosis isolate 2
[9] = tested on: Mycobacterium tuberculosis; assay: Antitubercular activity against multi drug resistant Mycobacterium tuberculosis isolate 7
[10] = tested on: Mycobacterium tuberculosis; assay: Antitubercular activity against multi drug resistant Mycobacterium tuberculosis isolate 4
[11] = tested on: Mycobacterium tuberculosis; assay: Antitubercular activity against multi drug resistant Mycobacterium tuberculosis isolate 6

CCCCCCCCCCCCCCCCC(=O)N(O)CCCC[C@H](NC(=O)[C@@H]1COC(c2ccccc2O)=N1)C(=O)NC[C@H](NC(=O)CCCO[C@H]1O[C@@H]2O[C@@]3(C)CC[C@H]4[C@H](C)CC[C@@H]([C@H]1C)[C@@]24OO3)C(=O)N[C@H]1CCCCN(O)C1=O
MIC [1]: 0.31 µg/mL (≈ 0.265 µM) | MIC [2]: 0.625 µg/mL (≈ 0.535 µM) | MIC [3]: 0.31 µg/mL (≈ 0.265 µM) | MIC [4]: 1.25 µg/mL (≈ 1.07 µM) | MIC [5]: 0.156 to 0.312 µg/mL (≈ 0.134 to 0.267 µM) | MIC [6]: 0.625 µg/mL (≈ 0.535 µM) | MIC [7]: 0.078 µg/mL (≈ 0.0668 µM) | MIC [8]: 0.625 µg/mL (≈ 0.535 µM) | MIC [9]: 0.312 µg/mL (≈ 0.267 µM) | MIC [10]: 0.625 µg/mL (≈ 0.535 µM) | MIC [11]: 0.625 µg/mL (≈ 0.535 µM)
